Source: patent US20240293558A1, “KRAS INHIBITOR CONJUGATES” (Erasca, Inc., priority 2021, published 2024)

Target: T1, KRAS 4B G12C protein (Homo sapiens, UniProt P01116, G12C)
T1 construct: made in house; host or cells: E. coli BL21
Assay: In vitro covalent adduct formation (CAF) assay, LC-MS
Assay type: binding
Conditions: 5 μM KRAS 4B G12C, 10 μM compound, 22° C.
Procedure: This Example provides a protocol for assessing covalent adduct formation (CAF) between the compounds provided herein and KRAS.
In vitro covalent adduct formation assay: Covalent adduct formation (CAF) reactions between Cys12 of the KRAS 4B G12C protein and embodiments of the application were measured in vitro using liquid chromatography-mass spectrometry (LC-MS).
Recombinant Human KRAS 4B protein containing the G12C mutation was used in compound screening experiments. This protein contained 188 amino acids in total, including an N-terminal 6-Histidine tag, followed by a Tobacco Etch Virus (TEV) tag, followed by residues 1-169 of the native KRAS 4B sequence. The exact mass of the protein was 21,310 Da as determined by mass spectrometry. […]
The recombinant protein was expressed in E. coli BL21 cells and purified using affinity chromatography via a Ni-NTA column. […] The intact mass of the protein samples was measured by LC-MS using a QExactive+mass spectrometer (Thermo Scientific). An amount of 500 ng total protein was injected onto a C8 reverse phase column, eluted with a seven-minute gradient of 30%-90% acetonitrile/0.10% formic acid, and analyzed for intact mass by the mass spectrometer. Adducts identified were confirmed to be within 1 Dalton of the expected mass, and the relative ratios of free:adduct protein were used to quantify the percentage of protein bound by the compound. […]

% CAF at 5 min: 98%
Compound: C=CC(=O)N1CCN(c2nc(OCCN3CCC4(CC3)CN(c3cc([C@H](C(=O)N5C[C@H](O)C[C@H]5C(=O)N[C@@H](C)c5ccc(-c6c(F)cccc6F)cc5)C(C)C)on3)C4)nc3c(F)c(-c4nc(N)cc(C)c4C(F)(F)F)c(Cl)cc23)[C@@H](C)C1 (atropisomer, axis not shown) [Example 201, (2S,4R)-1-((R)-2-(3-(7-(2-(((R)-4-((S)-4-acryloyl-2-methylpiperazin-1-yl)-7-(6-amino-4-methyl-3-(trifluoromethyl)pyridin-2-yl)-6-chloro-8-fluoroquinazolin-2-yl)oxy)ethyl)-2,7-diazaspiro[3.5]nonan-2-yl)isoxazol-5-yl)-3-methylbutanoyl)-N—((S)-1-(2′,6′-difluoro-[1,1′-biphenyl]-4-yl)ethyl)-4-hydroxypyrrolidine-2-carboxamide]
